According to patent publication US8206955B2, “Production of monatin and monatin precursors” (Cargill, Incorporated, priority 2003, dated 2012):

What was measured:
S. meliloti = test: plate assay using monatin as the main carbon and energy source; type: cell-based; settings: M9 medium + monatin (0.1-0.2%), 26° C.
Description: (§1) Organisms that can synthesize monatin can be detected by screening for growth on plates in which monatin (or the monatin precursor (MP)) is the main carbon and energy source. Screening by this method requires (1) that the synthetic pathway be reversible, allowing the product, monatin, to be metabolized by this route and (2) that the organism has a transport system that is able to import monatin or MP. S. meliloti, P. straminea, and C. testosteroni were tested for their ability to grow on minimal medium plates which contained monatin as the primary carbon and energy source.
(§2) Plates containing M9 minimal medium or Rhizobium minimal medium were prepared with 0.01% casamino acids and 0.1-0.2% carbon source (glucose or purified monatin). Negative control plates contained casamino acids but no additional carbon source. S. meliloti, P. straminea, and C. testosteroni were grown in rich media to OD 2.1-2.7 and diluted 1000-fold with sterile 1× phosphate-buffered saline (PBS). A volume of 1-10 μL was used for plating. The plates were incubated at 26° C. for several days. […] The experiments were repeated and C. testosteroni was grown in both NB as well as PHB media prior to induction. Again using M9 media for plating, the S. meliloti appeared to grow better with monatin as the carbon source than the other organisms. […] In addition, at the higher dilution (10^−6), the use of PHB-grown inoculum increased the number and size of colonies obtained compared to the NB-grown inoculum.

C. testosteroni = test: as above; type: cell-based
Description: as §1, §2

stability of MP = type: physicochemical
Text: Any effect of additional tryptophan and pyruvate was not detectable, except in the case of Comamonas, where a benefit was noted. […] It is not known whether tryptophan and pyruvate are efficiently taken up in these wildtype organisms, or what changes in gene expression occur as a result of adding large concentrations of these substrates to the medium. While the parahydroxybenzoate substrate is only known to induce the aldolase in Comamonas, it appears to have improved the level of monatin produced in S. meliloti as well.

[1] = aldolase activity assay, indole-3-pyruvate and pyruvate to MP; type: biochemical
Description: The proteins were assayed for activity using indole-3-pyruvate and sodium pyruvate as substrates. The assay mixture contained 100 mM Tris-HCl (pH 7-pH 8.9), 0-8 mM MgCl2, 3 mM potassium phosphate (pH 8), and 6 mM of each substrate in 1 mL. The reaction was started by adding varying amounts of polypeptide (for example from 10 to 100 μg), and was incubated at 25° C.-37° C. for 30 minutes, filtered, and then frozen at −80° C.
There is no evidence that magnesium and phosphate are required for activity for this enzyme. However, the literature reports performing the assays in sodium phosphate buffer, and the enzyme reportedly is bifunctional and has activity on phosphorylated substrates such as 2-keto-3-deoxy-6-phosphogluconate (KDPG). The enzymatic assays were performed as described above, and in some instances the phosphate was omitted. […] In some cases the level of MP produced by KHG was almost identical to the amount produced by magnesium and phosphate alone. […] The Bacillus enzyme had the highest activity, approximately 20-25% higher activity than the magnesium and phosphate alone, as determined by LC/MS/MS (see Example 6). […] All three enzymes have the active site glutamate (position 43 in B. subtilis numbering system) as well as the lysine required for Shiff base formation with pyruvate (position 130); however, the B. subtilis enzyme contains a threonine in position 47, an active site residue, rather than arginine. The B. subtilis KHG is smaller and appears to be in a cluster distinct from the S. meliloti and E. coli enzymes, with other enzymes having the active site threonine. The differences in the active site may be the reason for the increased activity of the B. subtilis enzyme.

[2] = tested on: C. testosteroni ProA aldolase and L-aspartate aminotransferase (AspC); test: production of monatin utilizing alternative C3-carbon sources; type: biochemical
Description: The reaction mixture consisted of 50 mM Tris-Cl pH 8.3, 2 mM MgCl2, 200 mM C3 carbon source, 5 mM alpha-ketoglutarate, sodium salt, 0.05 mM pyridoxal phosphate, deaerated water to achieve a final volume of 0.5 mL after the addition of the enzymes, 3 mM potassium phosphate pH 7.5, 25 μg of crude recombinant C. testosteroni ProA aldolase as prepared in Example 2, 500 μg of crude L-aspartate aminotransferase (AspC) as prepared in Example 1, and solid tryptophan to afford a concentration of >60 mM (saturated; some undissolved throughout the reaction). The reaction mix was incubated at 30° C. for 30 minutes with mixing. Serine, alanine, and aspartate were supplied as 3-carbon sources. Assays were performed with and without secondary PLP enzymes (purified) capable of performing beta-elimination and beta-lyase reactions (tryptophanase (TNA), double mutant tryptophanase, β-tyrosinase (TPL)).

E. coli BL21(DE3) = test: effect of Tweens on growth of E. coli in shake flasks; settings: for effect on growth rate: 0.2% Tween in the presence of 10 μg/mL ampicillin, followed over 48 h
Description: The affect of several detergent Tweens on the growth rate of E. coli BL21(DE3) was studied in shake flask experiments. Either Tween-20, -40, 60, or -80 was added at 0.2% in the presence of 10 μg/mL ampicillin and the growth was followed over 48 h.

[3] = 200 mM C3 carbon source, additional PLP enzyme: None
[4] = additional PLP enzyme: 11 μg wildtype TNA (1 U)
[5] = additional PLP enzyme: 80 μg double mutant TNA

NC(CC(O)(Cc1c[nH]c2ccccc12)C(=O)O)C(=O)O (racemic) [monatin, 2-hydroxy-2-(indol-3-ylmethyl)-4-aminoglutaric acid]
growth with monatin as carbon source (S. meliloti): exhibited better growth than the other strains tested
growth with monatin as carbon source (C. testosteroni; M9 media + monatin): exhibited some growth
growth with monatin as carbon source (C. testosteroni; Rhizobium minimal medium): grew better with monatin as the carbon and energy source than it did with glucose

O=C(O)C(=O)CC(O)(Cc1c[nH]c2ccccc12)C(=O)O (centres unmarked) [MP, 2-hydroxy 2-(indole-3-ylmethyl)-4-keto glutaric acid]
stability (stability of MP; aqueous solution): unstable in an aqueous solution
stability (stability of MP; fermentation broth and cell extracts): not stable in this particular matrix

Cc1ncc(COP(=O)(O)O)c(C=O)c1O [PLP, pyridoxal 5′-phosphate, reference compound]
formation of MP from indole-3-pyruvate and pyruvate (in words) [1]: did not appear to detectably convert indole-3-pyruvate to MP

C[C@H](N)C(=O)O [alanine]
Relative Activity [2, 3]: 32%
Relative Activity [2, 4]: 41.7%
Relative Activity [2, 5]: 43.9%

N[C@@H](CO)C(=O)O [serine]
Relative Activity [2, 3]: 3%
Relative Activity [2, 4]: 5.1%
Relative Activity [2, 5]: 4.6%

C. testosteroni aldolase: 4-hydroxy-4-methyl-2-oxoglutarate pyruvate lyase (ProA aldolase) from Comamonas testosteroni (SEQ ID NO: 66)
amount of MP produced ([1]; standard assay using 20 μg of purified protein, based on tryptophan standards): 10-40 μg per one mL reaction

Tween 40
inhibition to growth (E. coli BL21(DE3); 0.2% Tween): least inhibition to growth
effect on growth rate (E. coli BL21(DE3)): affected the growth rate the least

Tween-60
effect on growth rate (E. coli BL21(DE3)): intermediate in affect

Tween-80
effect on growth rate (E. coli BL21(DE3)): intermediate in affect

polyoxyethylene 20-Sorbitan monolaurate [Tween 20]
final OD600 relative to cultures grown in the presence of Tween 40 (E. coli BL21(DE3); 0.2% Tween): slightly over half
effect on growth rate (E. coli BL21(DE3)): about half

tryptophanase
formation of MP from indole-3-pyruvate and pyruvate (in words) [1]: did not appear to detectably convert indole-3-pyruvate to MP
